Assay results published in ChEMBL document CHEMBL1681651, “A broad spectrum anticancer nucleoside with selective toxicity against human colon cells in vitro” (2011).

Key:
Format in all cases: functional
HCC 2998 = assay: Growth inhibition of human HCC2998 cells assessed as cell growth at 1 mM after 48 hrs by SRB assay; details: HCC 2998, 48 h, read-out: Activity
M14 = assay: Growth inhibition of human M14 cells assessed as cell growth at 1 mM after 48 hrs by SRB assay; details: M14, 48 h, read-out: Activity
OVCAR-8 [1] = assay: Growth inhibition of human OVCAR8 cells assessed as cell growth at 10 uM after 48 hrs by SRB assay; details: OVCAR-8, 48 h, read-out: Activity
HOP-62 = assay: Growth inhibition of human HOP62 cells after 48 hrs by […] growth inhibition assay; details: HOP-62, 48 h
IGROV-1 = assay: Growth inhibition of human IGROV1 cells assessed as cell growth at 100 uM after 48 hrs by SRB assay; details: IGROV-1, 48 h, read-out: Activity
SF-268 = assay: Growth inhibition of human SF268 cells assessed as cell growth at 1 mM after 48 hrs by SRB assay; details: SF-268, 48 h, read-out: Activity
SNB-75 = assay: Growth inhibition of human SNB75 cells assessed as cell growth at 10 uM after 48 hrs by SRB assay; details: SNB-75, 48 h, read-out: Activity
MDA-MB-435 [2] = assay: Growth inhibition of human MDA-MB-435 cells assessed as cell growth at 0.1 uM after 48 hrs by SRB assay; details: MDA-MB-435, 48 h, read-out: Activity
CAKI-1 = assay: Growth inhibition of human Caki1 cells assessed as cell growth at 1 uM after 48 hrs by SRB assay; details: CAKI-1, 48 h, read-out: Activity
NCI-H460 = assay: Growth inhibition of human NCI-H460 cells assessed as cell growth at 100 uM after 48 hrs by SRB assay; details: NCI-H460, 48 h, read-out: Activity
EKVX = assay: Growth inhibition of human EKVX cells assessed as cell growth at 0.1 uM after 48 hrs by SRB assay; details: read-out: Activity
UACC-62 [3] = assay: Growth inhibition of human UACC62 cells assessed as cell growth at 100 uM after 48 hrs by SRB assay; details: UACC-62, 48 h, read-out: Activity
T47D = assay: Growth inhibition of human T47D cells after 48 hrs by […] growth inhibition assay
MDA-MB-435 [4] = assay: Growth inhibition of human MDA-MB-435 cells after 48 hrs by SRB assay; details: MDA-MB-435, 48 h
NCI-H522 = assay: Growth inhibition of human NCI-H522 cells assessed as cell growth at 1 uM after 48 hrs by SRB assay; details: NCI-H522, 48 h, read-out: Activity
DU-145 = assay: Growth inhibition of human DU145 cells assessed as cell growth at 1 mM after 48 hrs by SRB assay; details: DU-145, 48 h, read-out: Activity
RXF 393 = assay: Growth inhibition of human RXF393 cells after 48 hrs by […] growth inhibition assay; details: RXF 393, 48 h
OVCAR-4 = assay: Growth inhibition of human OVCAR4 cells assessed as cell growth at 100 uM after 48 hrs by SRB assay; details: OVCAR-4, 48 h, read-out: Activity
MDA-MB-231 = assay: Growth inhibition of human MDA-MB-231 cells assessed as cell growth at 100 uM after 48 hrs by SRB assay; details: MDA-MB-231, 48 h, read-out: Activity
SF-295 = assay: Growth inhibition of human SF295 cells assessed as cell growth at 10 uM after 48 hrs by SRB assay; details: SF-295, 48 h, read-out: Activity
UACC-62 [5] = assay: Growth inhibition of human UACC62 cells assessed as cell growth at 1 mM after 48 hrs by SRB assay; details: UACC-62, 48 h, read-out: Activity
OVCAR-8 [6] = assay: Growth inhibition of human OVCAR8 cells assessed as cell growth at 1 uM after 48 hrs by SRB assay; details: OVCAR-8, 48 h, read-out: Activity
COLO 205 = assay: Growth inhibition of human COLO205 cells assessed as cell growth at 1 uM after 48 hrs by SRB assay; details: COLO 205, 48 h, read-out: Activity
786-0 = assay: Growth inhibition of human 786-0 cells assessed as cell growth at 1 mM after 48 hrs by SRB assay; details: 786-0, 48 h, read-out: Activity
HCT-15 = assay: Growth inhibition of human HCT15 cells assessed as cell growth at 1 uM after 48 hrs by SRB assay; details: HCT-15, 48 h, read-out: Activity
SK-OV-3 = assay: Growth inhibition of human SKOV3 cells assessed as cell growth at 10 uM after 48 hrs by SRB assay; details: SK-OV-3, 48 h, read-out: Activity
NCI-H322M = assay: Growth inhibition of human NCI-H322M cells after 48 hrs by […] growth inhibition assay
HOP-92 = assay: Growth inhibition of human HOP92 cells after 48 hrs by […] growth inhibition assay; details: HOP-92, 48 h
TK-10 = assay: Growth inhibition of human TK10 cells assessed as cell growth at 100 uM after 48 hrs by SRB assay; details: TK-10, 48 h, read-out: Activity
SK-MEL-28 = assay: Growth inhibition of human SK-MEL-28 cells assessed as cell growth at 10 uM after 48 hrs by SRB assay; details: SK-MEL-28, 48 h, read-out: Activity
[7] = Growth inhibition of human Hs 578T cells assessed as cell growth at 10 uM after 48 hrs by SRB assay; details: read-out: Activity
MOLT-4 = assay: Growth inhibition of human MOLT4 cells assessed as cell growth at 10 uM after 48 hrs by SRB assay; details: MOLT-4, 48 h, read-out: Activity
[8] = read-out: LC50 (the source's name)
[9] = read-out: pLC50 (the source's name) (converted)

CNC(=O)NC[C@H]1O[C@@H](n2cnc3c(NC(=O)Nc4ccccc4)ncnc32)[C@H](O[Si](C)(C)C(C)(C)C)[C@@H]1O[Si](C)(C)C(C)(C)C
growth at 1000 µM (HCC 2998): -91%
growth at 1000 µM (M14): -52%
growth at 10 µM (OVCAR-8 [1]): 106%
GI50 (HOP-62; read-out: GI50): 4.98 µM
CC50 (HOP-62; [8]): 48 µM
TGI (HOP-62; read-out: TGI): 17.1 µM
GI50 (HOP-62; read-out: pGI50 (converted)): 5.01 µM
CC50 (HOP-62; [9]): 47.9 µM
TGI (HOP-62; read-out: pTGI (converted)): 17 µM
growth at 100 µM (IGROV-1): -12%
growth at 1000 µM (SF-268): -45%
growth at 10 µM (SNB-75): 73%
growth at 0.1 µM (MDA-MB-435 [2]): 102%
growth at 1 µM (CAKI-1): 99%
growth at 100 µM (NCI-H460): -74%
growth at 0.1 µM (EKVX): 105%
growth at 100 µM (UACC-62 [3]): 23%
GI50 (T47D; read-out: GI50): 2.87 µM
CC50 (T47D; [8]): > 100 µM
TGI (T47D; read-out: TGI): 10.3 µM
GI50 (T47D; read-out: pGI50 (converted)): 2.88 µM
CC50 (T47D; [9]): > 100 µM
TGI (T47D; read-out: pTGI (converted)): 10.2 µM
GI50 (MDA-MB-435 [4]; read-out: GI50): 3.41 µM
LC50 (MDA-MB-435 [4]; read-out: LC50): > 100 µM
TGI (MDA-MB-435 [4]; read-out: TGI): 29.1 µM
GI50 (MDA-MB-435 [4]; read-out: pGI50 (converted)): 3.39 µM
LC50 (MDA-MB-435 [4]; read-out: pLC50 (converted)): > 100 µM
TGI (MDA-MB-435 [4]; read-out: pTGI (converted)): 28.8 µM
growth at 1 µM (NCI-H522): 90%
growth at 1000 µM (DU-145): -89%
GI50 (RXF 393; read-out: GI50): 2.14 µM
CC50 (RXF 393; [8]): 7.5 µM
TGI (RXF 393; read-out: TGI): 4.01 µM
GI50 (RXF 393; read-out: pGI50 (converted)): 2.14 µM
CC50 (RXF 393; [9]): 7.41 µM
TGI (RXF 393; read-out: pTGI (converted)): 3.98 µM
growth at 100 µM (OVCAR-4): 7%
growth at 100 µM (MDA-MB-231): -29%
growth at 10 µM (SF-295): 111%
growth at 1000 µM (UACC-62 [5]): -39%
growth at 1 µM (OVCAR-8 [6]): 106%
growth at 1 µM (COLO 205): 111%
growth at 1000 µM (786-0): -80%
growth at 1 µM (HCT-15): 106%
growth at 10 µM (SK-OV-3): 107%
GI50 (NCI-H322M; read-out: GI50): 6.86 µM
CC50 (NCI-H322M; [8]): > 100 µM
TGI (NCI-H322M; read-out: TGI): > 100 µM
GI50 (NCI-H322M; read-out: pGI50 (converted)): 6.92 µM
CC50 (NCI-H322M; [9]): > 100 µM
TGI (NCI-H322M; read-out: pTGI): > 100 µM
GI50 (HOP-92; read-out: GI50): 1.56 µM
CC50 (HOP-92; [8]): 97.6 µM
TGI (HOP-92; read-out: TGI): 5.16 µM
GI50 (HOP-92; read-out: pGI50 (converted)): 1.55 µM
CC50 (HOP-92; [9]): 97.7 µM
TGI (HOP-92; read-out: pTGI (converted)): 5.13 µM
growth at 100 µM (TK-10): 14%

CNC(=O)OC[C@H]1O[C@@H](n2cnc3c(NC(=O)Nc4ccccc4)ncnc32)[C@H](O[Si](C)(C)C(C)(C)C)[C@@H]1O[Si](C)(C)C(C)(C)C
growth at 10 µM (OVCAR-8 [1]): 88.8%
growth at 10 µM (SNB-75): 76.6%
growth at 10 µM (SK-MEL-28): 102%
growth at 10 µM (SF-295): 108%
growth at 10 µM [7]: 97.6%
growth at 10 µM (MOLT-4): 75.3%
growth at 10 µM (SK-OV-3): 106%
